Measurements taken from patent publication US20220387457A1 (Qlaris Bio, Inc., priority 2020, published 2022).
“Also recorded” adds a separate entry of the source. Where two headings read alike, the source gives them in different places.

Assays:
[1] = biological target: T1, human Kir6.2/SUR2B KATP channel (Homo sapiens, UniProt O60706); assay: FLIPR membrane potential assay in HEK-Kir6.2/SUR2B cells; type: cell-based; conditions: for hyperpolarization / activation of Kir6.2/SUR2B KATP channels: up to 100 μM
T1 construct: expressed in transfected cells
T1 sequence (O60706 1-1549 isoform O60706-2): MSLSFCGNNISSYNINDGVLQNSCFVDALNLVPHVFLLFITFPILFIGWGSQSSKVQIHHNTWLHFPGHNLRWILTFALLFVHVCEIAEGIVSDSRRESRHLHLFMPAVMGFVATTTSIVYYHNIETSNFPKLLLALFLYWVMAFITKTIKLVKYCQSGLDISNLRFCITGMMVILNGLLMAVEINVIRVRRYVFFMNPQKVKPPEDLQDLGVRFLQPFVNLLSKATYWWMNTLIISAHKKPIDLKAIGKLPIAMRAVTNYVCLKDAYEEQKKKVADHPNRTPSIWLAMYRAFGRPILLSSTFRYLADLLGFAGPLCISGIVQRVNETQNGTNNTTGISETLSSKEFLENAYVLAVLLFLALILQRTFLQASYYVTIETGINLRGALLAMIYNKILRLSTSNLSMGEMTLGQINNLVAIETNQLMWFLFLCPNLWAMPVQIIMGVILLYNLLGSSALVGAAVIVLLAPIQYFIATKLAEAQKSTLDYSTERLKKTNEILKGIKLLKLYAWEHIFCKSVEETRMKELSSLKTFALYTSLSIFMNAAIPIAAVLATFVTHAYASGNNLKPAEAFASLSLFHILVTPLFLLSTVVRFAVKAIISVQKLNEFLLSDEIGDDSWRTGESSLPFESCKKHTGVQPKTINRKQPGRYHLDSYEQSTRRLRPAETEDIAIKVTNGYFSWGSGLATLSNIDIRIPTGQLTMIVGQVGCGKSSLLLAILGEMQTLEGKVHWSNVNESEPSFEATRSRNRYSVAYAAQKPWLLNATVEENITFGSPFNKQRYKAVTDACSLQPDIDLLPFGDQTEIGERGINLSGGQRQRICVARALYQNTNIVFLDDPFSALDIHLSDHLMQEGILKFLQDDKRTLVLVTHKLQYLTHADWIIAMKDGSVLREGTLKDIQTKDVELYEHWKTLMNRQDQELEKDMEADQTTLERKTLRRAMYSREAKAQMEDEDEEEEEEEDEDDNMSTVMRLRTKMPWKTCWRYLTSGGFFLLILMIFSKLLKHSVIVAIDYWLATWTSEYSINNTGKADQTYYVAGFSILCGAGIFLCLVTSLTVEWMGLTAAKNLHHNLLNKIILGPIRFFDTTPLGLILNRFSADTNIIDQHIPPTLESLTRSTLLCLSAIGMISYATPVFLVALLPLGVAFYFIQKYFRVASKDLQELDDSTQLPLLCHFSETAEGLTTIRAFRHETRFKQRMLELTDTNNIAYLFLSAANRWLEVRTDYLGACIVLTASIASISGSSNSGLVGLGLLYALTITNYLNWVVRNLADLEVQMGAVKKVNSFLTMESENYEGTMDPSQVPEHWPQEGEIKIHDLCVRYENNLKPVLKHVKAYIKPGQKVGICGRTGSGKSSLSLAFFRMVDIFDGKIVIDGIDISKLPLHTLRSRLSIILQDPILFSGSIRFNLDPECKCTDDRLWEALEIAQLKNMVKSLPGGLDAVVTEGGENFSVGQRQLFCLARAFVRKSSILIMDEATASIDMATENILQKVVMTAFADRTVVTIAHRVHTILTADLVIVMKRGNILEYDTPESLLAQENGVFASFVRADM
T1 sequence (Q14654 whole entry partner): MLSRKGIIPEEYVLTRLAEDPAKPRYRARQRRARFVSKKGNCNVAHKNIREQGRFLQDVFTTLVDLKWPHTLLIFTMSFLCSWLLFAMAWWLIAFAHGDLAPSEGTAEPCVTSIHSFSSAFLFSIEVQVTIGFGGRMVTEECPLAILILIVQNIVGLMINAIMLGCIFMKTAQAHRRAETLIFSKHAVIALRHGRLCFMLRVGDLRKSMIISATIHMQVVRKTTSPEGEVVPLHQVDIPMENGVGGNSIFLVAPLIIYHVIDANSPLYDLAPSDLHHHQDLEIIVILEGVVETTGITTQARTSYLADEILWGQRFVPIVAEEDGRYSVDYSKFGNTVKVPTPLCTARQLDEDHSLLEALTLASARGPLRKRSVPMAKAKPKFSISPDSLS
Description: The ability of CKLP1 and the active moiety of CKLP1, leveromakalim, to pharmacologically modulate the function of the human ATP-sensitive potassium channel comprised of Kir6.2 (encoded by the human gene KCNJ11) coupled to the sulfonylurea receptor SUR2B (encoded by the human gene ABCC9) was studied.
Compounds were dissolved up to 10 mM stock solution in DMSO. Ten-point concentration response curves were generated at 100× concentration in 100% DMSO. Compound source plates were made by serially diluting 10 mM compound stocks in DMSO to generate a progressive semilog dilution schema. Dose response stock plate (10 μL) were then transferred into assay plates containing 90 μL of assay buffer, generating 10× working concentrations. Final assay test concentration ranges of 100 μM to 0.003 μM with a final DMSO concentration of 1.0%.
Human embryonic kidney (HEK) cells stably expressing human Kir6.2/SUR2B KATP channel subunits were plated onto 96 well, black poly-d-lysine (PDL)-coated microplates and maintained in growth media the day prior to use for experiments. Media was removed from the plates and 90 μL of 1× stock of the membrane potential sensitive fluorescent dye FMP-Blue resuspended in assay buffer (EBSS—in mM: NaCl 145, KCl 2, Glucose 5, CaCl2) 1.8, MgCl2 0.8, HEPES 10, pH 7.4 with NaOH, 290-300 mOSm) was added to the cells. Cells were incubated at room temperature, protected from light, for 45-60 minutes. After the incubation period, cell, test compound and glibenclamide plates were loaded onto the fluorescence plate reader (FLIPR-TETRA™) and the scanning initiated. The FLIPR measured a 10 second baseline and then added 10 μL of 10× the final desired concentration of test agent. Changes in fluorescence were monitored for an additional 5 minutes. After the 5-minute compound incubation, 10 μL of the receptor inhibitor glibenclamide was added to the cell plate (10 uM final glibenclamide concentration). Changes in fluorescence was then monitored for an additional 5 minutes.
Compound modulation of Kir6.2/SUR2B KATP channel mediated changes in cellular membrane potential was determined as follows. After the administration of compound, FMP fluorescence was monitored for a 5-minute period. The following parameters were recorded and exported from the FLIPR: the average relative fluorescence response (RFU) of 5 images taken at the 5-minute point in the assay with the average background EBSS buffer response subtracted. […] Test agent effect was calculated as % activation using the following formula: […]
Curve fits were performed in GraphPad Prism graphing software using a 4-parameter, variable slope fit equation.

[2] = Concentration of CKLP1 and levcromakalim in ocular and systemic tissues of hound dogs; type: in vivo, hound dog; conditions: for concentration at 23 h: hound, dog
Description: After blood collection for pharmacokinetic studies, bilateral ocular treatment with CKLP1 (10 mM) continued in the hound dogs for 4-5 additional days.
For ocular tissue collection, eyes were enucleated and aqueous humor, vitreous humor, trabecular meshwork, optic nerve, ciliary body, iris, retina and cornea were isolated and stored at −80° C. While collecting tissues during necropsy, portions of heart, kidney, lung, brain, liver and skeletal muscle were immediately frozen for pharmacodynamics analysis, while the remaining tissue samples were immediately fixed in 10% neutral buffered formalin.
Immediately prior to analysis, tissues were thawed and their weight was measured. PBS was added at double the tissue volume homogenized in a rotor stator homogenizer for 30 seconds. […] Detection was accomplished using positive electrospray ionization with multiple-reaction monitoring (MRM). […] Data were acquired and analyzed using Waters MassLynx v4.1 software.

[3] = aqueous humor, 23 hours after last dose, topical 10 mM CKLP1 12-13 days, two animals, read-out: concentration in aqueous humor
[4] = ciliary body, 23 hours after last dose, topical 10 mM CKLP1 12-13 days, two animals, read-out: concentration in ciliary body
[5] = cornea, 23 hours after last dose, topical 10 mM CKLP1 12-13 days, two animals, read-out: concentration in cornea
[6] = heart, 23 hours after last dose, topical 10 mM CKLP1 12-13 days, read-out: concentration in heart
[7] = iris, 23 hours after last dose, topical 10 mM CKLP1 12-13 days, two animals, read-out: concentration in iris
[8] = kidney, 23 hours after last dose, topical 10 mM CKLP1 12-13 days, read-out: concentration in kidney
[9] = optic nerve, 23 hours after last dose, topical 10 mM CKLP1 once daily 12-13 days, two animals, read-out: concentration in optic nerve
[10] = retina, 23 hours after last dose, topical 10 mM CKLP1 12-13 days, two animals, read-out: concentration in retina
[11] = trabecular meshwork, 23 hours after last dose, topical 10 mM CKLP1 12-13 days, two animals, read-out: concentration in trabecular meshwork
[12] = vitreous humor, 23 hours after last dose, topical 10 mM CKLP1 12-13 days, two animals, read-out: concentration in vitreous humor

Structure (SMILES)	EC50 ([1]; ability to modulate KATP channel, HEK-Kir6.2/SUR2B cells, normalized to 100 uM pinacidil, read-out: EC50 (μM) (mean ± SEM)) [µM]	Emax at 100 µM ([1]; read-out: maximal response, % activation) [%]	hyperpolarization / activation of Kir6.2/SUR2B KATP channels [1]	concentration in lung ([2]; 23 hours after last dose, topical 10 mM CKLP1 12-13 days)	concentration at 23 h [2, 3]	concentration at 23 h [2, 4] [ng/g]	concentration at 23 h [2, 5] [ng/g]	concentration at 23 h [2, 6] [ng/g]	concentration at 23 h [2, 7] [ng/g]	concentration at 23 h [2, 8] [ng/g]	concentration at 23 h [2, 9] [ng/g]	concentration at 23 h [2, 10] [ng/g]	concentration at 23 h [2, 11] [ng/g]	concentration at 23 h [2, 12] [ng/g]	concentration in urine ([2]; topical 10 mM CKLP1 12-13 days) [ng/mL]	hyperpolarization reversed by coadministration of glibenclamide ([1]; glibenclamide 10 μM)	concentration at 23 h ([2]; lung, 23 hours after last dose, topical 10 mM CKLP1 12-13 days, read-out: concentration in lung) [ng/g]
CC1(C)Oc2ccc(C#N)cc2[C@@H](N2CCCC2=O)[C@@H]1OP(=O)(O)O [CKLP1]	> 100	9.4	did not result in any significant hyperpolarization; also recorded: failed to produce any significant activation	undetected	10.2 ± 14.4 ng/g	10.3 ± 8.1	31.3 ± 10.8	3.7 ± 0.5	4.8 ± 1.1	2.7 ± 2.9	63.8 ± 63.1	6.2 ± 3.8	170 ± 21.6	24.4 ± 2.4	88.0 ± 134.9		
CC1(C)Oc2ccc(C#N)cc2[C@@H](N2CCCC2=O)[C@@H]1O [Levcromakalim, levcromakalim, reference compound]			concentration-dependent hyperpolarization		1.1 ± 1.5 ng/mL	< 1	1.4 ± 0.3	0.9 ± 0.8	< 1	0.8 ± 1.2	< 1	< 1	2 ± 0.5	< 1	3.7 ± 4.5	reversed	0.3 ± 0.4
